Results from patent US12398138B2, “FGFR inhibitor compound in solid form and preparation method therefor” (CSPC ZHONGQI PHARMACEUTICAL TECHNOLOGY (SHIJIAZHUANG) CO., …, priority 2019, dated 2025).
Where two headings read alike, the source gives them in different places.

Columns and labels:
FGFR4 (V550M) = biological target: T1, FGFR4 (V550M) (Homo sapiens, UniProt P22455, V550M); test: 33P isotope-labeled kinase activity assay, mutant FGFR4 (V550M); assay type: biochemical; conditions: ATP 2.5 μM
T1 construct: purchased Signal Chem F07-12DG
T1 sequence (P22455 22-802 V550M): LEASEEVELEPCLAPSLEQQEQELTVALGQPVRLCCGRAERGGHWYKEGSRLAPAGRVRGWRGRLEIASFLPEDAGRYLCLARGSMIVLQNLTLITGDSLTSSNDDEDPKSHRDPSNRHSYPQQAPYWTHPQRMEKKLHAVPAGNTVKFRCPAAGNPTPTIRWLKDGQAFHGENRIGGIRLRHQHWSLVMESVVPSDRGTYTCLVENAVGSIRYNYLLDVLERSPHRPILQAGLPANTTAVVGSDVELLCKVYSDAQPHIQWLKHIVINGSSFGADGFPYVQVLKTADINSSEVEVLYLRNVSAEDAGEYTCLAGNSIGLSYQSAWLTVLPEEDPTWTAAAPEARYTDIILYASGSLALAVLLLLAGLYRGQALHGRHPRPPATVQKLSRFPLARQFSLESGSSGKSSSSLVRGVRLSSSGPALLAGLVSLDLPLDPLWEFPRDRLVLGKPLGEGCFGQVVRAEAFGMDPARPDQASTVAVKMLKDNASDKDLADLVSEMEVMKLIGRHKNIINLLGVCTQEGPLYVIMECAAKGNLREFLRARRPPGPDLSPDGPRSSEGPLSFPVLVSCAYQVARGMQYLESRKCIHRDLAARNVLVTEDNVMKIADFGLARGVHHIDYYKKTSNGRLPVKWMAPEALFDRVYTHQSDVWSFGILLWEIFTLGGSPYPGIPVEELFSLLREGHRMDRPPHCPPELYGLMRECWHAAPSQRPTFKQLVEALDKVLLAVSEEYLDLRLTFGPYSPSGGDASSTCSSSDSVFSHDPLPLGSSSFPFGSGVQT
Description: (§1) IC50 was determined by using ^33P isotope-labeled kinase activity assay (Reaction Biology Corp), to evaluate the inhibitory ability of the test compound against mutant FGFR.
(§2) Test procedures: At room temperature, test compound was dissolved in DMSO to prepare a 10 mM solution. The substrate was dissolved in a freshly prepared buffer, to which the test kinase was added and well mixed. By using acoustic technology (Echo 550), the solution of the test compound in DMSO was added into the well-mixed reaction solution, to allow a compound concentration in reaction solution to be 10 μM, 3.33 μM, 1.11 μM, 0.370 μM, 0.123 μM, 41.2 nM, 13.7 nM, 4.57 nM, 1.52 nM, 0.508 nM, or to be 10 μM, 2.50 μM, 0.62 μM, 0.156 μM, 39.1 nM, 9.8 nM, 2.4 nM, 0.61 nM, 0.15 nM, 0.038 nM. After 15 minutes of incubation, ^33P-ATP (having an activity of 0.01 μCi/μl, and corresponding concentrations were given in Table 5) was added to start the reaction. […] After washing the filter paper with a 0.75% phosphoric acid solution repeatedly, the radioactivity of the phosphorylated substrate left on the filter paper was measured. The kinase activity data was expressed by comparing the kinase activity of the test compound with that of blank group (containing DMSO only), and IC50 was determined by curve fitting with Prism4 software (GraphPad).

human FGFR1 = biological target: T2, human FGFR1 (Homo sapiens, UniProt P11362); test: 33P isotope-labeled kinase activity assay, wild type FGFR1; assay type: biochemical; conditions: ATP 5 μM
T2 construct: purchased Invitrogen PV3146
T2 sequence (P11362 22-822): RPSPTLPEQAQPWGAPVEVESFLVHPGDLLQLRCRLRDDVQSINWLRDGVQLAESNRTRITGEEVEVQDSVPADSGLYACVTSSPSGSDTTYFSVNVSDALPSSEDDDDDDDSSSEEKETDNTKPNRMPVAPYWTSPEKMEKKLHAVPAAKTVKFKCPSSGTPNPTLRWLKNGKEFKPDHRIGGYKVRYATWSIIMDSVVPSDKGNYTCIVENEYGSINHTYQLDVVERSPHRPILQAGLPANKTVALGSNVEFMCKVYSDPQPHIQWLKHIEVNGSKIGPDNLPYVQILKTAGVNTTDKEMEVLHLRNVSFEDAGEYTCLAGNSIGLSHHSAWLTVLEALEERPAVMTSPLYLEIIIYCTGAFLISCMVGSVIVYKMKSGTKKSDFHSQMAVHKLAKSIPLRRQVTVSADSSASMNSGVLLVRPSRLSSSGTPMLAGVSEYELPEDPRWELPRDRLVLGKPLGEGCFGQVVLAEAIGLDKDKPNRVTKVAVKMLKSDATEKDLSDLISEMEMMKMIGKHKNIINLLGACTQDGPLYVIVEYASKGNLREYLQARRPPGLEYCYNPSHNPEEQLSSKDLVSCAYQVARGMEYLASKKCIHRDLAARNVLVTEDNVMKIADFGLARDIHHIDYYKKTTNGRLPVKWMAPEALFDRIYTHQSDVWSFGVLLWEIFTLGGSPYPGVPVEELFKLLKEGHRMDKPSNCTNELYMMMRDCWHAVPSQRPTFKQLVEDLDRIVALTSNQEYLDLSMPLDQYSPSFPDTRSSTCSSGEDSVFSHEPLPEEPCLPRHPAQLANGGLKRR
Description: (§3) IC50 was determined by using ^33P isotope-labeled kinase activity assay (Reaction Biology Corp), to evaluate the inhibitory ability of the test compound against human FGFR1 and FGFR4.
(§4) Buffer conditions: 20 mM Hepes (pH 7.5), 10 mM MgCl2, 1 mM EGTA, 0.02% Brij35, 0.02 mg/mL BSA, 0.1 mM Na3VO4, 2 mM DTT, and 1% DMSO.
(§5) Test procedures: At room temperature, the compound of Formula (I) was dissolved in DMSO to prepare a 10 mM solution. The substrate was dissolved in a freshly prepared buffer, and added with the test kinase and well mixed. By using acoustic technology (Echo 550), the solution of the test compound in DMSO was added into the above well-mixed reaction solution, to allow a compound concentration in reaction solution to be 10 μM, 3.33 μM, 1.11 μM, 0.370 μM, 0.123 μM, 41.2 nM, 13.7 nM, 4.57 nM, 1.52 nM, and 0.508 nM, or to be 10 μM, 2.50 μM, 0.62 μM, 0.156 μM, 39.1 nM, 9.8 nM, 2.4 nM, 0.61 nM, 0.15 nM, and 0.038 nM. After 15 minutes of incubation, ^33P-ATP (having an activity of 0.01 μCi/μl, and corresponding concentrations were given in Table 3) was added to start the reaction. Information about FGFR1, FGFR4 and their substrate's supplier, catalog number and lot number, as well as their concentration in the reaction solution, was listed in Table 3. […]

FGFR2 (N549H) = biological target: T3, FGFR2 (N549H) (Homo sapiens, UniProt P21802, N549H); test: 33P isotope-labeled kinase activity assay, mutant FGFR2 (N549H); assay type: biochemical; conditions: ATP 50 μM
T3 construct: purchased Millipore 14-742
T3 sequence (P21802 22-821 N549H): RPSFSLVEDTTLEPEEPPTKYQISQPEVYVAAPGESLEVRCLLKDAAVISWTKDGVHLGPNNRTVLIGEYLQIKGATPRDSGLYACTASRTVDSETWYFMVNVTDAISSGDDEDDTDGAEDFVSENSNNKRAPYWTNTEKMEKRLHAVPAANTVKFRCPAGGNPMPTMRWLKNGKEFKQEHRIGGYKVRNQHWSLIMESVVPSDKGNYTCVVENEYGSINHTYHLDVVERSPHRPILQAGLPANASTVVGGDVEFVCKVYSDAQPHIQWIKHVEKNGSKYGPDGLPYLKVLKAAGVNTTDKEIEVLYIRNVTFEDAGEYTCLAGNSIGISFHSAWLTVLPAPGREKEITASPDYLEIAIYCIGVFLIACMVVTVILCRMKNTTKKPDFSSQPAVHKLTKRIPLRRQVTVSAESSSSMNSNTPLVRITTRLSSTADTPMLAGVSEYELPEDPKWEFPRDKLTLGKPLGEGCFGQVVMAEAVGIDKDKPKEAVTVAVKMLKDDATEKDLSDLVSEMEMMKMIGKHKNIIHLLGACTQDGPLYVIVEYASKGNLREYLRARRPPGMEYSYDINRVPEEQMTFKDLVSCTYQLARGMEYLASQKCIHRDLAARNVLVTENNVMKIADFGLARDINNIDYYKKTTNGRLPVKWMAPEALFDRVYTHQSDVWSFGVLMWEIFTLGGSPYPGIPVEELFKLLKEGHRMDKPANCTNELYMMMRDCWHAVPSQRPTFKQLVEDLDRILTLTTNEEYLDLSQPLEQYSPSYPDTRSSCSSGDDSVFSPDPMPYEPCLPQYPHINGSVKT
Description: as §1, §2

FGFR3 (K650M) = biological target: T4, FGFR3 (K650M) (Homo sapiens, UniProt P22607, K650M); test: 33P isotope-labeled kinase activity assay, mutant FGFR3 (K650M); assay type: biochemical; conditions: ATP 2.5 μM
T4 construct: purchased Carna Biosciences Carna 08-199
T4 sequence (P22607 23-806 K650M): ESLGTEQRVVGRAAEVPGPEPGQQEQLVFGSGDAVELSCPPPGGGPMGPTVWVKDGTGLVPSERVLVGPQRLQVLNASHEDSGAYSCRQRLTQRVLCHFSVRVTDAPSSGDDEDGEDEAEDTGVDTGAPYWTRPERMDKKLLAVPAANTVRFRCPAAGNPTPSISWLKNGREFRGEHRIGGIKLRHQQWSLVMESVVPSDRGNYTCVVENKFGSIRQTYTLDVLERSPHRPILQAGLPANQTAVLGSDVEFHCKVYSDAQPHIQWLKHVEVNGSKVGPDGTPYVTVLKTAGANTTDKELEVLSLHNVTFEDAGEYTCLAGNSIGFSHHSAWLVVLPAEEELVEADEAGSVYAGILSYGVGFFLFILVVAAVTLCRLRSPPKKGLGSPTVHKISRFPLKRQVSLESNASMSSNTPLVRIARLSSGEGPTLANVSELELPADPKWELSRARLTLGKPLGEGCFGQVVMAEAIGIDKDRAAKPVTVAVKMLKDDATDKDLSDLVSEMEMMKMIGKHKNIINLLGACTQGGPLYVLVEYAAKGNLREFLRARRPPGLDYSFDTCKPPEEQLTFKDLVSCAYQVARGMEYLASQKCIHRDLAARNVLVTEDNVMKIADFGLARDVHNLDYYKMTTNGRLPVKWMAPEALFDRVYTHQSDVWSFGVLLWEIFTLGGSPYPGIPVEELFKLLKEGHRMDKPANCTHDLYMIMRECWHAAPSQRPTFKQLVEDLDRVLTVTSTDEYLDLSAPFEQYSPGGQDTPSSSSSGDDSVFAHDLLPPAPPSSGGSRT
Description: as §1, §2

[1] = Pharmacokinetic investigation in dogs; assay type: in vivo; conditions: male, dog, plasma, beagle dogs; for AUC: read-out: Concentration integral AUC; for half-life: read-out: Half-life T1/2 (converted); for bioavailability: read-out: Bioavailability F
Excerpt: The experiments aimed to test the pharmacokinetics of the test compound in beagle dogs.
Two beagle dogs were selected as one group. The compound was formulated into a designated preparation. The vehicle for intravenous injection was a mixture of DMSO: polyethylene glycol […] (PEG400): saline=10:40:50 (volume ratio) or a mixture of 10% DMSO/10% solutol/80% water. The vehicle for oral administration was a mixture of 0.5% methylcellulose (MC)+0.2% Tween. Each animal was given the preparation intragastrically at a predetermined dosage.
Whole blood samples, each about 500 μL, were collected from the cephalic vein or saphenous vein at […], namely 5 minutes, 15 minutes, 30 minutes, 1 hour, 2 hours, 4 hours, 6 hours, 8 hours, 12 hours and 24 hours after the animals were administered.
The […] was put into a centrifuge tube containing anticoagulant, and centrifuged at 3000 g for 10 min at 4° C. The plasma supernatant was frozen quickly on dry ice, and then kept in a frige at −70±10° C. until LC-MS/MS analysis was performed.
The plasma concentration of the compound was processed using a non-compartmental model by WinNonlin™ Version 6.3.0 (Pharsight, Mountain View, Calif.) pharmacokinetic software. The peak concentration (Cmax), time of maximum plasma concentration (Tmax), and time of the last quantifiable concentration, were determined directly from the curve of plasma concentration−time.
The following pharmacokinetic parameters: half-life time of elimination phase (T½), the mean residence time of the drug in the body from time 0 to the end timepoint (MRT0-last), the mean residence time of the drug in the body from time 0 to infinite time (MRT0-inf), area under the plasma concentration-time curve from time 0 to the end timepoint (AUC0-last), area under plasma concentration-time curve from time 0 to infinite time (AUC0-inf), were calculated using the log-linear trapezoidal method.
For the individual plasma concentration below the detection line, when it appeared before Tmax, it was calculated as 0; when it appeared after Tmax, it was directly excluded. All parameters and ratios were reported in the form of three significant figures.
In these experiments, the pharmacokinetic parameters were calculated based on the theoretical blood collection time and theoretical administration concentration in the embodiments.

FGFR1 (V561M) = biological target: T5, FGFR1 (V561M) (Homo sapiens, UniProt P11362, V561M); test: 33P isotope-labeled kinase activity assay, mutant FGFR1 (V561M); assay type: biochemical; conditions: ATP 10 μM
T5 construct: purchased Signal Chem F04-13G
T5 sequence (P11362 22-822 V561M): as the sequence (P11362 22-822) above, with V540M counted along it
Description: as §1, §2

FGFR4 (N535K) = biological target: T6, FGFR4 (N535K) (Homo sapiens, UniProt P22455, N535K); test: 33P isotope-labeled kinase activity assay, mutant FGFR4 (N535K); assay type: biochemical; conditions: ATP 2.5 μM
T6 construct: purchased Carna Biosciences Carna 08-524
T6 sequence (P22455 22-802 N535K): as the sequence (P22455 22-802 V550M) above, with N514K, M529V counted along it
Description: as §1, §2

FGFR2 (E565G) = biological target: T7, FGFR2 (E565G) (Homo sapiens, UniProt P21802, E565G); test: 33P isotope-labeled kinase activity assay, mutant FGFR2 (E565G); assay type: biochemical; conditions: ATP 10 μM
T7 construct: purchased Signal Chem F05-12CG
T7 sequence (P21802 22-821 E565G): as the sequence (P21802 22-821 N549H) above, with H528N, E544G counted along it
Description: as §1, §2

human FGFR4 = biological target: T8, human FGFR4 (Homo sapiens, UniProt P22455); test: 33P isotope-labeled kinase activity assay, wild type FGFR4; assay type: biochemical; conditions: ATP 100 μM
T8 construct: purchased Invitrogen P3054
T8 sequence (P22455 22-802): as the sequence (P22455 22-802 V550M) above, with M529V counted along it
Description: as §3, §4, §5

FGFR3 (V555M) = biological target: T9, FGFR3 (V555M) (Homo sapiens, UniProt P22607, V555M); test: 33P isotope-labeled kinase activity assay, mutant FGFR3 (V555M); assay type: biochemical; conditions: ATP 20 μM
T9 construct: purchased SignalChem F06-12GG
T9 sequence (P22607 23-806 V555M): as the sequence (P22607 23-806 K650M) above, with V533M, M628K counted along it
Description: as §1, §2

FGFR2 (V564F) = biological target: T10, FGFR2 (V564F) (Homo sapiens, UniProt P21802, V564F); test: 33P isotope-labeled kinase activity assay, mutant FGFR2 (V564F); assay type: biochemical; conditions: ATP 20 μM
T10 construct: purchased SignalChem F05-12FG
T10 sequence (P21802 22-821 V564F): as the sequence (P21802 22-821 N549H) above, with H528N, V543F counted along it
Description: as §1, §2

[2] = Hygroscopicity by dynamic vapor sorption (DVS); assay type: physicochemical; conditions: 25° C. and 80% RH
Description: Dynamic Vapor Sorption (DVS)
Test condition: Approximately 10-15 mg of sample was used for DVS detection.
Equilibrating dm/dt: 0.01%/min: (time: 10 min-180 min (maximum))
RH (%) measuring gradient: 10%
Range of RH (%) measuring gradient: 0%-90%-0%
The evaluation criteria was as follows:
SMS DVS Advantage dynamic vapor adsorption instrument
10-15 mg of the crystal form B of the compound of Formula (I) was taken and placed on a DVS sample pan for test.

[3] = 1 mg/kg, intravenous administration (1 mpk)
[4] = 5 mg/kg, oral administration (5 mpk)

C=CC(=O)N1CC[C@H](c2cc(-c3cc4cc(C)cc(OC)c4s3)c3c(N)ncnn23)C1 [compound represented by Formula (I)]
IC50 (FGFR4 (V550M)): 5.6 nM | IC50 (human FGFR1): 0.2 nM | IC50 (FGFR2 (N549H)): 0.5 nM | IC50 (FGFR3 (K650M)): 0.2 nM | clearance [1, 3]: 9.4 mL/min/kg | AUC [1, 3]: 4.13 µM·h | half-life [1, 3]: 180 min | bioavailability [1, 4]: 88% | AUC [1, 4]: 18.2 µM·h | IC50 (FGFR1 (V561M)): 38 nM | IC50 (FGFR4 (N535K)): 34 nM | IC50 (FGFR2 (E565G)): 0.1 nM | IC50 (human FGFR4): 0.2 nM | IC50 (FGFR3 (V555M)): 7.3 nM | IC50 (FGFR2 (V564F)): 33 nM

C=CC(=O)N1CC[C@H](c2cc(-c3cc4cc(C)cc(OC)c4s3)c3c(N)ncnn23)C1
hygroscopicity classification [2]: no or almost no hygroscopicity (weight gain caused by moisture is less than 0.2%.) | weight gain caused by moisture-adsorption ΔW [2]: 0.1928%

C=CC(=O)N1CC[C@H](n2nc(C#Cc3cc(OC)cc(OC)c3)c3c(N)ncnc32)C1 [reference compound 1, reference compound]
clearance [1, 3]: 17 mL/min/kg | half-life [1, 3]: 48 min | bioavailability [1, 4]: 41%
